The experiment has as its target Aurora kinase-1 (TbAUK1) (Trypanosoma brucei, UniProt Q384J7). Briefly: in vitro kinase assay of immunoprecipitated kinase. In kind it is biochemical.

Each structure is given as a SMILES string.

As for `CCS(=O)(=O)Nc1ccc2c(c1)/C(=C(/Nc1ccc(CN3CCCCC3)cc1)c1ccccc1)C(=O)N2` [Hesperadin], it took 40 nM to reach half-maximal inhibition (IC50).

The values are drawn from PMC2697958 (Molecular microbiology, 2009).
